From patent publication US20260250318A1, “COMPOSITIONS AND METHODS FOR CROSSING THE BLOOD BRAIN BARRIER” (VOYAGER THERAPEUTICS, INC., priority 2022, published 2026)

Assays:
Conditions in all cases: synthetic library passage 3, intravenous, relative to wild-type AAV9
[1] = system: brain; assay: NGS fold enrichment of synthetic library (passage 3) in BALB/c mice, first cross-species screen; format: in vivo
Description: (§1) After creation of the synthetic library with the sub-selected variants, the synthetic library was screened (passage 3) in two NHPs (2-4 years of age) and two strains of mice, BALB/c (n=3, 6-8 weeks of age) and C57Bl/6 mice (n=3, 6-8 weeks of age), in a first cross-species evolution screen. The animals were injected intravenously with the synthetic library. After a period in vivo, (e.g., 28-days) RNA was extracted from nervous tissue, e.g., brain, spinal cord, and DRG of the NHPs and the brains of mice. Following RNA recovery and RT-PCR amplification, a systematic NGS enrichment analysis was performed, and the peptides comprised within the variants were identified and the capsid enrichment ratio for each variant compared to the wild-type AAV9 control was calculated (fold enrichment relative to wild-type AAV9) (Table 9). […] All animals were dosed intravenously at […] across the screen.

[2] = system: brain, spinal cord, and DRG of the NHPs; assay: NGS fold enrichment of synthetic library (passage 3) in NHPs, first cross-species screen; format: in vivo, cynomolgus macaques (Macaca fascicularis)
Description: as §1

[3] = system: brain; assay: NGS fold enrichment of synthetic library (passage 3) in C57Bl/6 mice, first cross-species screen; format: in vivo
Description: as §1

[4] = RNA from brain of BALB/c mice, NGS
[5] = RNA from spinal cord of NHPs, NGS
[6] = RNA from brain of C57Bl/6 mice, NGS

Sequence	Fold enrichment over AAV9 in the brain of Mice (BALB/c) ([1]; RNA NGS, brain of BALB/c mice) [fold]	Fold enrichment over AAV9 in the brain of NHPs ([2]; RNA NGS, brain of NHPs) [fold]	Fold enrichment over AAV9 in the spinal cord of NHPs ([2]; RNA NGS, spinal cord of NHPs) [fold]	Fold enrichment over AAV9 in the brain of Mice (C57Bl/6) ([3]; RNA NGS, brain of C57Bl/6 mice) [fold]	Fold enrichment over AAV9 in the brain of Mice (BALB/c) [1, 4] [fold]	Fold enrichment over AAV9 in the brain of NHPs ([2]; RNA from brain of NHPs, NGS) [fold]	Fold enrichment over AAV9 in the spinal cord of NHPs [2, 5] [fold]	Fold enrichment over AAV9 in the brain of Mice (C57Bl/6) [3, 6] [fold]
GHMKGVTSGQNQQT	0.413	1.081	2.814	0.807				
GHPSPHVSGQNQQT	0.488	1.713	0.416	0.551				
GHSFVNRSGQNQQT	0.756	2.447	11.148	1.305				
GHTLTLSSGQNQQT	0.606	3.405	5.648	0.648				
GIARTTISGQNQQT	0.330	1.078	1.783	0.819				
GIFMQTPSGQNQQT	0.252	2.344	6.198	0.938				
GIILGASSGQNQQT	0.865	3.630	4.868	1.378				
GILLATPSGQNQQT	0.288	1.931	8.205	1.341				
GIMARDSSGQNQQT	0.904	1.972	3.486	1.320				
GIPSIRESGQNQQT					0.254	1.282	0.166	0.484
GKPAGGLSGQNQQT	0.739	1.085	2.805	0.708				
GKSFVPQSGQNQQT	0.430	1.489	2.502	1.798				
GLAGHTVSGQNQQT	0.202	3.632	0.229	0.972				
GLAHKTSSGQNQQT	0.690	1.106	0.915	0.427				
GLGAYQSSGQNQQT	0.688	1.574	0.696	1.407				
GLGSKNHSGQNQQT					0.224	1.187	5.046	0.825
GLGSKNPSGQNQQT					0.424	1.147	1.629	1.184
GLGYPGSSGQNQQT	0.577	1.763	7.090	0.929				
GLHGMTLSGQNQQT					0.338	1.226	3.552	0.470

Sequence	Fold enrichment over AAV9 in the brain of Mice (BALB/c) ([1]; RNA NGS, brain of BALB/c mice) [fold]	Fold enrichment over AAV9 in the brain of NHPs ([2]; RNA NGS, brain of NHPs) [fold]	Fold enrichment over AAV9 in the spinal cord of NHPs ([2]; RNA NGS, spinal cord of NHPs) [fold]	Fold enrichment over AAV9 in the brain of Mice (C57Bl/6) ([3]; RNA NGS, brain of C57Bl/6 mice) [fold]	Fold enrichment over AAV9 in the brain of Mice (BALB/c) [1, 4] [fold]	Fold enrichment over AAV9 in the brain of NHPs ([2]; RNA from brain of NHPs, NGS) [fold]	Fold enrichment over AAV9 in the spinal cord of NHPs [2, 5] [fold]	Fold enrichment over AAV9 in the brain of Mice (C57Bl/6) [3, 6] [fold]
GLLAGKSSGQNQQT	0.946	1.491	2.981	0.999				
GLNHFGASGQNQQT	0.579	3.802	3.188	0.774				
GLRLSTPSGQNQQT	0.522	1.498	4.334	0.804				
GLSAEKSSGQNQQT	0.303	1.047	7.203	0.629				
GLSNPMPSGQNQQT	0.829	2.280	6.033	1.190				
GLSWPSTSGQNQQT	0.610	2.238	0.000	0.910				
GMDHSRPSGQNQQT	0.648	1.627	3.976	0.918				
GMGRHSASGQNQQT	0.389	1.417	6.500	0.470				
GMRMEYQSGQNQQT	0.632	1.729	3.695	0.644				
GMRTYHLSGQNQQT	1.586	9.241	1.939	2.033				
GMSAHMSSGQNQQT	0.947	2.456	5.255	1.310				
GMTSHSVSGQNQQT	0.154	1.850	2.732	0.220				
GMYEYSQSGQNQQT	0.448	1.438	0.000	1.410				
GNGFSSASGQNQQT	0.182	2.493	0.772	0.240				
GNGHSMRPNQNQQT	0.376	1.560	2.341	0.693				
GNGLYAVSGQNQQT	0.213	2.611	9.148	0.322				
GNGQNQQHSILHGT	0.415	1.435	0.000	0.777				
GNIAGSVSGQNQQT	0.257	2.849	1.187	0.446				
GNILHATSGQNQQT	0.424	2.136	0.125	1.159				
